# Measurements from ChEMBL document CHEMBL5137008, “Recent advances of antitumor shikonin/alkannin derivatives: A comprehensive overview focusing on structural classification, synthetic approaches, and mechanisms of action” (Eur J Med Chem, 2022).
# Tests used:
# [1] = Antiproliferative activity against human BGC cells assessed as inhibition of cell proliferation incubated for 20 hrs by MTT assay; assay type: functional, cell-based
# L02 = experiment: Antiproliferative activity against human L02 cells assessed as inhibition of cell proliferation incubated for 20 hrs by MTT assay; assay type: functional, cell-based; conditions: L02, 20 h
# HeLa [2] = experiment: Antiproliferative activity against human HeLa cells assessed as inhibition of cell proliferation incubated for 20 hrs by MTT assay; assay type: functional, cell-based
# A549 [3] = experiment: Antiproliferative activity against human A549 cells assessed as inhibition of cell proliferation incubated for 20 hrs by MTT assay; assay type: functional, cell-based; conditions: A549, 20 h
# HepG2 [4] = experiment: Antiproliferative activity against human HepG2 cells assessed as inhibition of cell proliferation incubated for 20 hrs by MTT assay; assay type: functional, cell-based; conditions: HepG2, 20 h
# MCF7 [5] = experiment: Antiproliferative activity against human MCF7 cells assessed as inhibition of cell proliferation incubated for 20 hrs by MTT assay; assay type: functional, cell-based; conditions: MCF7, 20 h
# [6] = Cytotoxicity against human skin fibroblast cells assessed as reduction in cell viability incubated for 72 hrs by MTT assay; assay type: toxicity, cell-based
# MCF7 [7] = experiment: Anticancer activity against human MCF7 cells assessed as reduction in cell viability for 72 hrs by MTT assay; assay type: functional, cell-based; conditions: MCF7, 72 h
# HCT-15 [8] = experiment: Anticancer activity against human HCT-15 cells assessed as reduction in cell viability for 72 hrs by MTT assay; assay type: functional, cell-based; conditions: HCT-15, 72 h
# [9] = Cytotoxicity against human skin fibroblast cells incubated for 24 hrs by MTT assay; assay type: toxicity, cell-based
# K562 = experiment: Anticancer activity against human K562 cells assessed as reduction in cell viability for 72 hrs by MTT assay; assay type: functional, cell-based; conditions: K562, 72 h
# Sarcoma-180 = experiment: Antitumor activity against mouse Sarcoma-180 cells xenografted in ip dosed ICR mouse assessed as tumor growth inhibition rate administered daily for 7 days relative to control; assay type: functional; conditions: time 7 day
# L1210 = experiment: Anticancer activity against mouse L1210 cells; assay type: functional; conditions: read-out: ED50 (the source's name)
# A549 [10] = experiment: Anticancer activity against human A549 cells; assay type: functional; conditions: read-out: ED50 (the source's name)
# A549 [11] = experiment: Anticancer activity against human A549 cells assessed as inhibition of cell growth incubated for 72 hrs by MTT assay; assay type: functional, cell-based; conditions: A549, 72 h
# [12] = Anticancer activity against human A875 cells assessed as inhibition of cell growth incubated for 72 hrs by MTT assay; assay type: functional, cell-based; conditions: A875, 72 h
# SW872 = experiment: Anticancer activity against human SW872 cells assessed as inhibition of cell growth incubated for 72 hrs by MTT assay; assay type: functional, cell-based; conditions: SW872, 72 h
# [13] = Cytotoxicity against human L02 cells assessed as reduction in cell viability incubated for 24 hrs by MTT assay; assay type: toxicity, cell-based
# A549 [14] = experiment: Antiproliferative activity against human A549 cells assessed as reduction in cell viability incubated for 24 hrs by MTT assay; assay type: functional, cell-based; conditions: A549, 24 h
# HeLa [15] = experiment: Antiproliferative activity against human HeLa cells assessed as reduction in cell viability incubated for 24 hrs by MTT assay; assay type: functional, cell-based
# HepG2 [16] = experiment: Antiproliferative activity against human HepG2 cells assessed as reduction in cell viability incubated for 24 hrs by MTT assay; assay type: functional, cell-based; conditions: HepG2, 24 h
# HCT-15 [17] = experiment: Anticancer activity against human HCT-15 cells incubated for 72 hrs by MTT assay; assay type: functional, cell-based; conditions: HCT-15, 72 h
# MCF7 [18] = experiment: Anticancer activity against human MCF7 cells incubated for 72 hrs by MTT assay; assay type: functional, cell-based; conditions: MCF7, 72 h
# MGC-803 = experiment: Anticancer activity against human MGC-803 cells incubated for 72 hrs by MTT assay; assay type: functional, cell-based; conditions: MGC-803, 72 h
# Fibroblast = experiment: Cytotoxicity against human skin fibroblast cells incubated for 72 hrs by MTT assay; assay type: functional, cell-based
# [19] = Cytotoxicity against human L02 cells assessed as inhibition of cell growth incubated for 24 hrs in presence of foetal bovine serum by MTT assay; assay type: toxicity, cell-based
# [20] = Cytotoxicity against human HEK293T cells assessed as inhibition of cell growth incubated for 24 hrs in presence of foetal bovine serum by MTT assay; assay type: toxicity, cell-based, HEK-293T
# HeLa [21] = experiment: cells; conditions: Homo sapiens, 24 h
# MCF7 [22] = experiment: Antiproliferative activity against human MCF7 cells assessed as inhibition of cell growth incubated for 24 hrs in presence of foetal bovine serum by MTT assay; assay type: functional, cell-based; conditions: MCF7, 24 h
# HepG2 [23] = experiment: Anticancer activity against human HepG2 cells assessed as inhibition of cell growth incubated for 24 hrs by MTT assay; assay type: functional, cell-based; conditions: HepG2, 24 h
# [24] = Anticancer activity against human A875 cells assessed as inhibition of cell growth incubated for 24 hrs by MTT assay; assay type: functional, cell-based; conditions: A875, 24 h
# A549 [25] = experiment: Antiproliferative activity against human A549 cells assessed as inhibition of cell growth incubated for 24 hrs in presence of foetal bovine serum by MTT assay; assay type: functional, cell-based; conditions: A549, 24 h
smiles,measurement,setting,value
CC(C)=CC[C@@H](OC(=O)C(Cc1ccccc1)N1C(=O)c2ccccc2C1=O)C1=CC(=O)c2c(O)ccc(O)c2C1=O (some centres not stated),IC50,[1],> 100 µM
same,IC50,L02,> 100 µM
same,IC50,HeLa [2],2.92 µM
same,IC50,A549 [3],> 100 µM
same,IC50,HepG2 [4],1.69 µM
same,IC50,MCF7 [5],3.05 µM
CC(C)=CC[C@H](O)C1=CC(=O)c2c(O)ccc(O)c2C1=O [ALKANNIN],IC50 at 72 h,[6],1.5 µM
same,IC50,MCF7 [7],2.62 µM
same,IC50,HCT-15 [8],1.11 µM
same,IC50 at 24 h,[9],1.8 µM
same,IC50,K562,1.5 µM
CO/N=C/c1cc(O)c2c(c1O)C(=O)C=CC2=O,T/C,Sarcoma-180,318%
same,EC50,L1210,0.109 µg/mL
same,EC50,A549 [10],> 10 µg/mL
CC(C)=CC[C@@H](OC(=O)/C=C/c1cccc(C(F)(F)F)c1)C1=CC(=O)c2c(O)ccc(O)c2C1=O,IC50,A549 [11],1.62 µM
same,IC50,[12],0.65 µM
same,IC50,SW872,0.69 µM
CCCO/N=C/c1cc(O)c2c(c1O)C(=O)C=CC2=O,T/C,Sarcoma-180,229%
same,EC50,L1210,0.107 µg/mL
same,EC50,A549 [10],> 10 µg/mL
CC(C)=CC[C@@H](OC(=O)[C@@H](Cc1ccccc1)N1C(=O)C2C3C=CC(C3)C2C1=O)C1=CC(=O)c2c(O)ccc(O)c2C1=O (some centres not stated),IC50,[1],11.6 µM
same,IC50,L02,> 100 µM
same,IC50,HeLa [2],1.26 µM
same,IC50,A549 [3],> 100 µM
same,IC50,HepG2 [4],1.92 µM
same,IC50,MCF7 [5],3.55 µM
CC(C)=CC[C@@H](OC(=O)C1CC1)C1=CC(=O)c2c(O)ccc(O)c2C1=O,IC50 at 24 h,[13],> 100 µM
same,IC50,A549 [14],3.73 µM
same,IC50,HeLa [15],3.47 µM
same,IC50,HepG2 [16],0.759 µM
O=c1[nH]cc(F)c(=O)[nH]1 [FLUOROURACIL],IC50,HCT-15 [17],8.24 µM
same,IC50,MCF7 [18],29.5 µM
same,IC50,MGC-803,> 50 µM
same,IC50,Fibroblast,> 50 µM
COc1cc2c(c(OC)c1OC)-c1ccc(OC)c(=O)cc1[C@@H](NC(C)=O)CC2 [COLCHICINE],IC50 at 24 h,[19],2.3 µM
same,IC50 at 24 h,[20],1.03 µM
same,IC50,HeLa [21],17.8 µM
same,IC50,MCF7 [22],0.22 µM
same,IC50,HepG2 [23],4.65 µM
same,IC50,[24],0.75 µM
same,IC50,A549 [25],0.47 µM
CC(C)=CC[C@@H](OC(=O)[C@@H](C)N1C(=O)c2ccccc2C1=O)C1=CC(=O)c2c(O)ccc(O)c2C1=O,IC50,[1],13.3 µM
same,IC50,L02,> 100 µM
same,IC50,HeLa [2],1.93 µM
same,IC50,A549 [3],> 100 µM
same,IC50,HepG2 [4],5.35 µM
same,IC50,MCF7 [5],2.55 µM
